{"source": "patent US9725490B2", "about": "“ERAP1-derived peptide and use thereof” (TOKUSHIMA UNIVERSITY, priority 2011, dated 2017)", "format_in_all_cases": "cell-based, human", "key": {"ERAP1 expression": {"system": "ERAP1 expression", "assay": "ERAP1 expression, quantitative RT-PCR and Western, MCF-7", "settings": "10 μM peptide, time course"}, "[1]": {"system": "estrogen-dependent gene expression in MCF-7 cells", "assay": "Microarray transcriptome analysis, MCF-7", "settings": "for Fold change: E2 alone/E2 + peptide", "method": "MCF-7 cells were treated with 10 μM ERAP1-peptide (Peptide) and the ERAP1-scramble peptide (scrPeptide). Then, immediately, the cells were stimulated with 10 nM E2 for 1 hour. Subsequently, the obtained cell lysate solution was digested with trypsin and subjected to 2DICAL. […] MCF-7 cells were treated with 10 μM ERAP1-peptide. Then, immediately, the cells were stimulated with 10 nM E2 for 5, 10 and 15 hours. Then, RNA extraction and then Cy3-cRNA synthesis were performed, and the Cy3-cRNA was subjected to the microarray. The data were statistically analyzed by GeneSpring software, and the ratio to the value at 0 hour was calculated. **P<0.01.\nMCF-7 cells were treated with 10 μM ERAP1-peptide. Then, immediately the cells were stimulated with 10 nM E2. Then, RNA extraction was performed. Cy3 labeled cRNA was synthesized with Low Input Quick Amp Labeling Kit (Agilent Technologies, Loveland, Colo., USA) and hybridized with a custom microarray at 65° C. for 17 hours. The microarray was washed. Then, the product hybridized was measured with a microarray scanner (Agilent). The results thereof were digitized with Future Extraction software (Agilent). The data were statistically analyzed with GeneSpring software (Agilent), and the ratio to the value at 0 hour was calculated."}, "ERα": {"system": "ERα", "assay": "ERα down-regulation and polyubiquitination in MCF-7 cells", "method": "FIG. 4-5 is a diagram illustrating that the ERAP1-peptide promotes nuclear translocation of PHB2. […] Then, the protein level and the mRNA level for the expression of ERα were obtained by Western blotting (the upper panel: Protein) and semi-quantitative RT-PCR (the lower panel: mRNA), respectively. β-actin is a loading control for each. […] MCF-7 cells were treated with the ERAP1-peptide and/or E2 in the presence of 1 μM MG-132 for 1 hour. Then, the cell lysate was immunoprecipitated with anti-ERα antibody.\nDown-regulation of ERα was evaluated by semi-quantitative reverse transcription PCR. Complete RNA was extracted using RNeasy Mini purification kit (Qiagen) from E2-treated cells in the presence or in the absence of the ERAP1 peptide, and reverse-transcribed into cDNA using Superscript II reverse transcriptase (Invitrogen), oligo dT primer (nvitrogen) and 25 mM dNTP Mixture (Invitrogen). mRNAs of ERα and β-actin were measured with GeneAmp PCR system (Applied Biosystems, Foster, Calif., USA). The primers are as described below: […]"}}}
{"smiles": "CSCC[C@H](NC(=O)[C@H](CCC(N)=O)NC(=O)[C@H](CCCNC(=N)N)NC(=O)[C@H](CCCNC(=N)N)NC(=O)[C@H](CCCNC(=N)N)NC(=O)[C@H](CCCNC(=N)N)NC(=O)[C@H](CCCNC(=N)N)NC(=O)[C@H](CCCNC(=N)N)NC(=O)[C@H](CCCNC(=N)N)NC(=O)[C@H](CCCNC(=N)N)NC(=O)[C@H](CCCNC(=N)N)NC(=O)[C@H](CCCNC(=N)N)NC(=O)[C@@H](N)CCCNC(=N)N)C(=O)N[C@@H](CC(C)C)C(=O)N[C@@H](CO)C(=O)N[C@@H](CC(=O)O)C(=O)N[C@@H](CC(C)C)C(=O)N[C@H](C(=O)N[C@@H](CC(C)C)C(=O)N[C@@H](CCC(N)=O)C(=O)N[C@@H](CC(C)C)C(=O)N[C@@H](CCCNC(=N)N)C(=O)N[C@@H](CCC(N)=O)C(=O)N[C@@H](CCCNC(=N)N)C(=O)O)[C@@H](C)O", "note": "[ERAP1-peptide]", "values": [{"measurement": "E2-dependent expression of ERAP1", "setting": "ERAP1 expression", "result": "temporally suppressed"}, {"measurement": "change of mRNA expressions", "setting": "[1]; 10 μM, 10 nM E2, versus E2", "result": "decreased significantly and genome-widely"}, {"measurement": "Fold change", "setting": "[1]; gene ADCY1", "result": 5.92}, {"measurement": "Fold change", "setting": "[1]; gene AKR1C1", "result": 7.79}, {"measurement": "Fold change", "setting": "[1]; gene AKR1C3", "result": 6.37}, {"measurement": "Fold change", "setting": "[1]; gene AKR1C4", "result": 6.00}, {"measurement": "Fold change", "setting": "[1]; gene ANKS6", "result": 9.00}, {"measurement": "Fold change", "setting": "[1]; gene ARHGAP36", "result": 7.08}, {"measurement": "Fold change", "setting": "[1]; gene BASP1", "result": 8.01}, {"measurement": "Fold change", "setting": "[1]; gene BCAS3", "result": 5.92}, {"measurement": "Fold change", "setting": "[1]; gene BMP5", "result": 7.72}, {"measurement": "Fold change", "setting": "[1]; gene BMP7", "result": 8.40}, {"measurement": "Fold change", "setting": "[1]; gene BTG3", "result": 9.06}, {"measurement": "Fold change", "setting": "[1]; gene C1orf59", "result": 8.43}, {"measurement": "Fold change", "setting": "[1]; gene C6orf150", "result": 5.95}, {"measurement": "Fold change", "setting": "[1]; gene C13orf18", "result": 5.79}, {"measurement": "Fold change", "setting": "[1]; gene CA2", "result": 9.87}, {"measurement": "Fold change", "setting": "[1]; gene CALB2", "result": 6.05}, {"measurement": "Fold change", "setting": "[1]; gene CALHM2", "result": 8.63}, {"measurement": "Fold change", "setting": "[1]; gene CALML5", "result": 6.39}, {"measurement": "Fold change", "setting": "[1]; gene CAV1", "result": 7.44}, {"measurement": "Fold change", "setting": "[1]; gene CAV2", "result": 6.63}, {"measurement": "Fold change", "setting": "[1]; gene CCDC83", "result": 6.76}, {"measurement": "Fold change", "setting": "[1]; gene CEACAM5", "result": 6.84}, {"measurement": "Fold change", "setting": "[1]; gene CMTM3", "result": 7.06}, {"measurement": "Fold change", "setting": "[1]; gene CNKSR3", "result": 6.27}, {"measurement": "Fold change", "setting": "[1]; gene CTNND2", "result": 6.83}, {"measurement": "Fold change", "setting": "[1]; gene CXCR7", "result": 10.15}, {"measurement": "Fold change", "setting": "[1]; gene CYBA", "result": 9.51}, {"measurement": "Fold change", "setting": "[1]; gene DCLK1", "result": 7.84}, {"measurement": "Fold change", "setting": "[1]; gene DDX43", "result": 8.53}, {"measurement": "Fold change", "setting": "[1]; gene DPYSL5", "result": 5.76}, {"measurement": "Fold change", "setting": "[1]; gene ECHDC1", "result": 7.73}, {"measurement": "Fold change", "setting": "[1]; gene ELOVL2", "result": 7.14}, {"measurement": "Fold change", "setting": "[1]; gene FABP5", "result": 6.38}, {"measurement": "Fold change", "setting": "[1]; gene FAM189A2", "result": 6.33}, {"measurement": "Fold change", "setting": "[1]; gene FZD6", "result": 7.54}, {"measurement": "Fold change", "setting": "[1]; gene GPER", "result": 7.51}, {"measurement": "Fold change", "setting": "[1]; gene GSTT1", "result": 7.93}, {"measurement": "Fold change", "setting": "[1]; gene HAR1B", "result": 7.11}, {"measurement": "Fold change", "setting": "[1]; gene HMCN1", "result": 7.54}, {"measurement": "Fold change", "setting": "[1]; gene HPDL", "result": 7.68}, {"measurement": "Fold change", "setting": "[1]; gene KCNJ3", "result": 8.31}, {"measurement": "Fold change", "setting": "[1]; gene KCNJ8", "result": 6.44}, {"measurement": "Fold change", "setting": "[1]; gene KCNQ1OT1", "result": 6.60}, {"measurement": "Fold change", "setting": "[1]; gene KIF1A", "result": 7.12}, {"measurement": "Fold change", "setting": "[1]; gene KLK6", "result": 5.98}, {"measurement": "Fold change", "setting": "[1]; gene KLK11", "result": 8.08}, {"measurement": "Fold change", "setting": "[1]; gene LOC389332", "result": 6.52}, {"measurement": "Fold change", "setting": "[1]; gene LOC654433", "result": 6.72}, {"measurement": "Fold change", "setting": "[1]; gene LOC732272", "result": 7.09}, {"measurement": "Fold change", "setting": "[1]; gene LOC100508679", "result": 9.85}, {"measurement": "Fold change", "setting": "[1]; gene LPIN2", "result": 6.27}, {"measurement": "Fold change", "setting": "[1]; gene LRRC10B", "result": 7.17}, {"measurement": "Fold change", "setting": "[1]; gene LXN", "result": 11.09}, {"measurement": "Fold change", "setting": "[1]; gene LYPD1", "result": 6.66}, {"measurement": "Fold change", "setting": "[1]; gene MAGED4B", "result": 6.80}, {"measurement": "Fold change", "setting": "[1]; gene MALL", "result": 6.05}, {"measurement": "Fold change", "setting": "[1]; gene MARCKS", "result": 6.99}, {"measurement": "Fold change", "setting": "[1]; gene ME1", "result": 6.91}, {"measurement": "Fold change", "setting": "[1]; gene MEST", "result": 8.84}, {"measurement": "Fold change", "setting": "[1]; gene MUCL1", "result": 6.13}, {"measurement": "Fold change", "setting": "[1]; gene NCRNA00052", "result": 7.27}, {"measurement": "Fold change", "setting": "[1]; gene NUP210L", "result": 7.84}, {"measurement": "Fold change", "setting": "[1]; gene OOEP", "result": 6.57}, {"measurement": "Fold change", "setting": "[1]; gene PCDH10", "result": 5.78}, {"measurement": "Fold change", "setting": "[1]; gene PDGFRL", "result": 5.77}, {"measurement": "Fold change", "setting": "[1]; gene PM20D2", "result": 6.56}, {"measurement": "Fold change", "setting": "[1]; gene PMP22", "result": 5.93}, {"measurement": "Fold change", "setting": "[1]; gene POTEB", "result": 7.70}, {"measurement": "Fold change", "setting": "[1]; gene POTED", "result": 6.82}, {"measurement": "Fold change", "setting": "[1]; gene PPARG", "result": 7.30}, {"measurement": "Fold change", "setting": "[1]; gene RAMP1", "result": 5.82}, {"measurement": "Fold change", "setting": "[1]; gene RAMP3", "result": 7.25}, {"measurement": "Fold change", "setting": "[1]; gene RGS22", "result": 7.22}, {"measurement": "Fold change", "setting": "[1]; gene RP86KA3", "result": 7.84}, {"measurement": "Fold change", "setting": "[1]; gene S100A14", "result": 6.73}, {"measurement": "Fold change", "setting": "[1]; gene SALL4", "result": 6.60}, {"measurement": "Fold change", "setting": "[1]; gene SDR42E1", "result": 8.01}, {"measurement": "Fold change", "setting": "[1]; gene SERPINA5", "result": 5.87}, {"measurement": "Fold change", "setting": "[1]; gene SLC6A14", "result": 8.73}, {"measurement": "Fold change", "setting": "[1]; gene SLC7A2", "result": 8.32}, {"measurement": "Fold change", "setting": "[1]; gene SLC27A6", "result": 8.00}, {"measurement": "Fold change", "setting": "[1]; gene SNX7", "result": 7.48}, {"measurement": "Fold change", "setting": "[1]; gene SOX3", "result": 6.52}, {"measurement": "Fold change", "setting": "[1]; gene SPANXA1", "result": 6.68}, {"measurement": "Fold change", "setting": "[1]; gene SPANXB2", "result": 6.55}, {"measurement": "Fold change", "setting": "[1]; gene ST8SIA4", "result": 6.99}, {"measurement": "Fold change", "setting": "[1]; gene TFPI2", "result": 6.82}, {"measurement": "Fold change", "setting": "[1]; gene THBD", "result": 5.97}, {"measurement": "Fold change", "setting": "[1]; gene TLR2", "result": 5.74}, {"measurement": "Fold change", "setting": "[1]; gene TMEM26", "result": 6.66}, {"measurement": "Fold change", "setting": "[1]; gene TMEM64", "result": 6.46}, {"measurement": "Fold change", "setting": "[1]; gene TMEM150C", "result": 7.57}, {"measurement": "Fold change", "setting": "[1]; gene TOX2", "result": 6.29}, {"measurement": "Fold change", "setting": "[1]; gene TPM4", "result": 7.60}, {"measurement": "Fold change", "setting": "[1]; gene TSPYL5", "result": 9.50}, {"measurement": "Fold change", "setting": "[1]; gene UGT1A6", "result": 5.78}, {"measurement": "Fold change", "setting": "[1]; gene UGT1A8", "result": 6.60}, {"measurement": "Fold change", "setting": "[1]; gene WISP2", "result": 6.73}, {"measurement": "Fold change", "setting": "[1]; gene XIST", "result": 8.53}, {"measurement": "Fold change", "setting": "[1]; gene ZNF618", "result": 6.39}, {"measurement": "decrease in the protein level of ERα after estrogen", "setting": "ERα; MCF-7", "result": "the decrease thereof was suppressed"}, {"measurement": "polyubiquitination of ERα", "setting": "ERα; MCF-7, E2, in the presence of MG132", "result": "polyubiquitination of ERα was inhibited"}]}
